pKi: −log10 of the molar value. Square brackets hold non-standard residues; d marks the D form. Peptide text beside a SMILES is read from it. Nle = CCCC[C@H](N)C(=O)O; βAla = NCCC(=O)O
Columns and labels:
[1] = target: Gastrin-releasing peptide receptor (Homo sapiens) (UniProt P30550)
Neuromedin-B receptor = Neuromedin-B receptor (Homo sapiens, UniProt P28336)
[2] = target: T1, Bombesin receptor subtype-3 (Homo sapiens, UniProt P32247)
T1 sequence (P32247 whole entry): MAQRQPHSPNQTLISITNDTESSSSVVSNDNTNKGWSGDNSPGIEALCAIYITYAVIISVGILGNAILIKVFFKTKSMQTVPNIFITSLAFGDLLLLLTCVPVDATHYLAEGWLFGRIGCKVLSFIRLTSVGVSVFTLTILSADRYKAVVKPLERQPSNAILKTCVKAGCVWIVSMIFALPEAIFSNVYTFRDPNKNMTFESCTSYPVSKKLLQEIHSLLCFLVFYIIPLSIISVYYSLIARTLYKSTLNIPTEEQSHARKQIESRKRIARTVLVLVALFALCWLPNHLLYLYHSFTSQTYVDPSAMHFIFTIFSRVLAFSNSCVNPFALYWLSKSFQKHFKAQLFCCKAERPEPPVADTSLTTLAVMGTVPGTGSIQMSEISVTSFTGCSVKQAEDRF

[3] = target: Gastrin-releasing peptide receptor (Homo sapiens) (UniProt P30550); remark: listed apart in the source

Chain of Neuromedin-B receptor (P28336 whole entry): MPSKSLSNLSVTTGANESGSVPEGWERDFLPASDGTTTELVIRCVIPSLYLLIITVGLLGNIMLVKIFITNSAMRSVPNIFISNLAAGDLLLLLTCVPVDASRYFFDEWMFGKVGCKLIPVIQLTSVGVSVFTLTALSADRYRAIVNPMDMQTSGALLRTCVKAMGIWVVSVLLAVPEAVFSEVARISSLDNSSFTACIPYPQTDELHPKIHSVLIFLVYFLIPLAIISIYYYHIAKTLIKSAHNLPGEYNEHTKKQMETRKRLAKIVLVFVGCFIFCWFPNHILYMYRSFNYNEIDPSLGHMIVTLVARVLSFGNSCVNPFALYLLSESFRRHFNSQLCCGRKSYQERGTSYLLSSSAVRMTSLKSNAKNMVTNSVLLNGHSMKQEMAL
Chain of Gastrin-releasing peptide receptor (Homo sapiens) (P30550 whole entry, looked up): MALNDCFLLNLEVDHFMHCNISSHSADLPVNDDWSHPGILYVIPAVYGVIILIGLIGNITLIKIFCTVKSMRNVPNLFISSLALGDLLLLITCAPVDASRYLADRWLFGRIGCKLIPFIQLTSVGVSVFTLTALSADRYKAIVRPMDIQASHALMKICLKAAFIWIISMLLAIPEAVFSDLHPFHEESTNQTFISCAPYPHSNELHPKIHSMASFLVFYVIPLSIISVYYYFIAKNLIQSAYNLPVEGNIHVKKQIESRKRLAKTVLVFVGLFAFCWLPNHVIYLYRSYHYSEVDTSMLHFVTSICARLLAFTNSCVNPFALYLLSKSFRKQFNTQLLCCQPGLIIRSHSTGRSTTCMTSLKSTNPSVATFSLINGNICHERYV

SMILES | pKi [1] | pKi (Neuromedin-B receptor) | pKi [2] | pKi [3]
CCCC[C@H](NC(=O)[C@H](Cc1ccccc1)NC(=O)[C@H](Cc1cnc[nH]1)NC(=O)C[C@H](NC(=O)[C@@H](NC(=O)[C@H](C)NC(=O)[C@H](Cc1c[nH]c2ccccc12)NC(=O)[C@H](CCC(N)=O)NC(=O)[C@H](N)Cc1ccc(O)cc1)C(C)C)c1ccccc1)C(N)=O [CAS_0] | 6.96 |  |  | 
CSCC[C@H](NC(=O)[C@H](Cc1ccccc1)NC(=O)[C@H](Cc1cnc[nH]1)NC(=O)CNC(=O)[C@@H](NC(=O)[C@H](C)NC(=O)[C@H](Cc1c[nH]c2ccccc12)NC(=O)[C@H](CC(C)C)NC(=O)[C@H](CC(N)=O)NC(=O)CN)[C@@H](C)O)C(N)=O [NMB] |  | 9.26 | < 5.00 | 
CC(C)[C@H](NC(=O)[C@H](C)NC(=O)[C@H](Cc1c[nH]c2ccccc12)NC(=O)[C@H](CCC(N)=O)NC(=O)[C@H](N)Cc1ccc(O)cc1)C(=O)NCCC(=O)N[C@@H](Cc1cnc[nH]1)C(=O)N[C@@H](Cc1ccccc1)C(=O)NC[C@H](N)C(N)=O [NSC_0] | 7.07 | < 5.00 | 5.62 | 
CCCC[C@H](NC(=O)[C@H](Cc1ccccc1)NC(=O)[C@H](Cc1c[nH]cn1)NC(=O)C[C@@H](NC(=O)[C@@H](NC(=O)[C@H](C)NC(=O)[C@H](Cc1c[nH]c2ccccc12)NC(=O)[C@H](CCC(N)=O)NC(=O)[C@H](N)Cc1ccc(O)cc1)C(C)C)c1ccc(Cl)cc1)C(N)=O [NSC_0] | 5.73 | 5.14 | 8.09 | 
CCCC[C@H](NC(=O)[C@H](Cc1ccccc1)NC(=O)[C@H](Cc1c[nH]cn1)NC(=O)C[C@@H](NC(=O)[C@@H](NC(=O)[C@H](C)NC(=O)[C@H](Cc1c[nH]c2ccccc12)NC(=O)[C@H](CCC(N)=O)NC(=O)[C@H](N)Cc1ccc(O)cc1)C(C)C)c1ccccc1)C(N)=O [NSC_0] | 6.82 | 5.62 | 8.55 | 
CCCC[C@H](NC(=O)[C@H](Cc1ccccc1)NC(=O)[C@H](Cc1cnc[nH]1)NC(=O)C[C@@H](NC(=O)[C@@H](NC(=O)[C@H](C)NC(=O)[C@H](Cc1c[nH]c2ccccc12)NC(=O)[C@H](CCC(N)=O)NC(=O)[C@H](N)Cc1ccc(O)cc1)C(C)C)c1cccc(Cl)c1)C(N)=O [NSC_0] | 6.96 | 6.08 | 7.80 | 
CCCC[C@H](NC(=O)[C@H](Cc1ccccc1)NC(=O)[C@H](Cc1cnc[nH]1)NC(=O)C[C@@H](NC(=O)[C@@H](NC(=O)[C@H](C)NC(=O)[C@H](Cc1c[nH]c2ccccc12)NC(=O)[C@H](CCC(N)=O)NC(=O)[C@H](N)Cc1ccc(O)cc1)C(C)C)c1ccccc1Cl)C(N)=O [NSC_0] | 6.64 | 5.16 | 7.62 | 
CCCC[C@H](NC(=O)[C@H](Cc1ccccc1)NC(=O)[C@H](Cc1cnc[nH]1)NC(=O)C[C@H](NC(=O)[C@@H](NC(=O)[C@H](C)NC(=O)[C@H](Cc1c[nH]c2ccccc12)NC(=O)[C@H](CCC(N)=O)NC(=O)[C@H](N)Cc1ccc(O)cc1)C(C)C)C(=O)NCc1ccccc1)C(N)=O [NSC_0] |  | 6.19 | 6.15 | 6.40
CCCC[C@H](NC(=O)[C@H](Cc1ccccc1)NC(=O)[C@H](Cc1cnc[nH]1)NC(=O)C[C@H](NC(=O)[C@@H](NC(=O)[C@H](C)NC(=O)[C@H](Cc1c[nH]c2ccccc12)NC(=O)[C@H](CCC(N)=O)NC(=O)[C@H](N)Cc1ccc(O)cc1)C(C)C)C(=O)O)C(N)=O [NSC_0] | 6.40 | 6.37 | 6.31 | 
CCCC[C@H](NC(=O)[C@H](Cc1ccccc1)NC(=O)[C@H](Cc1cnc[nH]1)NC(=O)C[C@H](NC(=O)[C@@H](NC(=O)[C@H](C)NC(=O)[C@H](Cc1c[nH]c2ccccc12)NC(=O)[C@H](CCC(N)=O)NC(=O)[C@H](N)Cc1ccc(O)cc1)C(C)C)c1ccc(Cl)cc1)C(N)=O [NSC_0] | 6.13 | 5.71 | 6.11 | 
CCCC[C@H](NC(=O)[C@H](Cc1ccccc1)NC(=O)[C@H](Cc1cnc[nH]1)NC(=O)C[C@H](NC(=O)[C@@H](NC(=O)[C@H](C)NC(=O)[C@H](Cc1c[nH]c2ccccc12)NC(=O)[C@H](CCC(N)=O)NC(=O)[C@H](N)Cc1ccc(O)cc1)C(C)C)c1cccc(Cl)c1)C(N)=O [NSC_0] | 5.60 | < 5.00 | 6.97 | 
CCCC[C@H](NC(=O)[C@H](Cc1ccccc1)NC(=O)[C@H](Cc1cnc[nH]1)NC(=O)C[C@H](NC(=O)[C@@H](NC(=O)[C@H](C)NC(=O)[C@H](Cc1c[nH]c2ccccc12)NC(=O)[C@H](CCC(N)=O)NC(=O)[C@H](N)Cc1ccc(O)cc1)C(C)C)c1ccccc1Cl)C(N)=O [NSC_0] | 6.40 | 5.23 | 7.07 | 
CCCC[C@H](NC(=O)[C@H](Cc1ccccc1)NC(=O)[C@H](Cc1cnc[nH]1)NC(=O)[C@@H](N)CNC(=O)[C@@H](NC(=O)[C@H](C)NC(=O)[C@H](Cc1c[nH]c2ccccc12)NC(=O)[C@H](CCC(N)=O)NC(=O)[C@H](N)Cc1ccc(O)cc1)C(C)C)C(N)=O [NSC_0] | 9.00 | 7.37 | 8.64 | 
CCCC[C@H](NC(=O)[C@H](Cc1ccccc1)NC(=O)[C@H](Cc1cnc[nH]1)NC(=O)[C@H](CNC(=O)[C@@H](NC(=O)[C@H](C)NC(=O)[C@H](Cc1c[nH]c2ccccc12)NC(=O)[C@H](CCC(N)=O)NC(=O)[C@H](N)Cc1ccc(O)cc1)C(C)C)NC(=O)c1ccccc1)C(N)=O [NSC_0] | 8.51 | 7.26 | 7.91 | 
CCCC[C@H](NC(=O)[C@H](Cc1ccccc1)NC(=O)[C@H](Cc1cnc[nH]1)NC(=O)[C@H](CNC(=O)[C@@H](NC(=O)[C@H](C)NC(=O)[C@H](Cc1c[nH]c2ccccc12)NC(=O)[C@H](CCC(N)=O)NC(=O)[C@H](N)Cc1ccc(O)cc1)C(C)C)NC(C)=O)C(N)=O [NSC_0] | 8.77 | 7.05 | 7.80 | 
CCCC[C@H](NC(=O)[C@H](Cc1ccccc1)NC(=O)[C@H](Cc1cnc[nH]1)NC(=O)CCNC(=O)[C@@H](NC(=O)[C@H](C)NC(=O)[C@H](Cc1c[nH]c2ccccc12)NC(=O)[C@H](CCC(N)=O)NC(=O)[C@H](N)Cc1ccc(O)cc1)C(C)C)C(N)=O [NSC_0] (H-[dY]QWAV[βAla]HF[Nle]-NH2) |  | 8.23 | 9.09 | 

Reference: BindingDB's records for doi:10.1124/jpet.104.066761 (National Institutes of Health, 2004)
